The record followed here is PMC13242511, “Disrupting Notch signalling by a small molecule inhibiting dihydroorotate dehydrogenase activity” (Scientific Reports, 2026).

The structures appear in SMILES notation. Where two headings read alike, the source gives them in different places. Bounds are passed on as bounds.

Test [1] concerns T-ALL and breast cancer cell lines. Nature of the test: Growth inhibition in tumour cell lines (panel, cell lines not named singly). On the set-up: key to tumor cell growth: + indicates that the compound had an effect; -: − indicates that there was no significant effect in the respective assay. The note with it: for IC50: six days, read-out: IC50, metabolic activity; for viability assay: overview in comparison to compound C, Supplemental Fig. 9; for tumor cell growth: summary Fig. 8E. It is filed as cell-based. The source says: (§1) We next investigated whether compounds A-E affected growth and viability of cell lines from T-cell acute lymphoblastic leukaemia (T-ALL) and breast cancer, two tumour types in which elevated Notch signalling has been implicated in tumorigenesis. […] When testing analogues of compounds B and C, five of the seven B analogues and one of the two C analogues produced dose–response curves and IC50s, which however were higher compared to the original hits (Supplemental Fig. 5A; IC50s are presented in Supplemental Table 6).
(§2) Compounds were spotted on white 384-well tissue culture plates (Greiner, cat #781080) using an Echo 525 Acoustic liquid handler (Labcyte). Cells were grown to 80% confluence, detached if required, counted and 20 µl containing 2000–4000 cells per well was then seeded in each well and cultivated for three (4,000 cells seeded) and six days (2,000 cells seeded). […] Luciferase activity (reading out metabolic activity) was determined using the CellTiter-Glo 2.0 kit (CTG, Promega, cat #G9242) following the manufacturer’s instructions and luminescence was measured on a SpectraMaxi3 or Varioscan plate reader (Molecular Devices, Thermofisher).

Test [2] concerns Notch downstream genes in tumour cell lines. Nature of the test: Three dose response gene expression analysis (qRT-PCR), panel of cell lines. In kind it is cell-based. On the set-up: key to gene expression: + indicates that the compound had an effect; -: − indicates that there was no significant effect in the respective assay. The note with it: for Notch targets: overview in comparison to compound C, Supplemental Fig. 9; for gene expression: summary Fig. 8E. How it is done: Total RNA from cell lines was isolated using the RNeasy Mini kit (cat #74104, Qiagen), according to the manufacturer’s instructions. qRT-PCR was performed as described elsewhere[51] with some minor modifications: RNA was reverse transcribed to cDNA using iScript Reverse Transcription Supermix (cat # 1708841, Bio-rad). cDNA was then diluted 1:5 in nuclease free H20. qRT-PCR was performed on a C1000 Touch thermal cycler (Bio-rad) and gene expression was detected with SsoAdvanced Universal SYBR Green Supermix (cat # 1725274, Bio-rad). Gene expression was determined by normalizing to GAPDH mRNA expression levels and fold expression change was calculated using the ΔΔCT method (ΔΔCT = ΔCt sample − Δct control). Primers used in qPCR are shown in Supplemental Table 9.
Adherent breast cancer cells were seeded in 24-well cell culture plates (ThermoFisher, Nunc, Delta surface, cat #144530) and T-ALL cells growing in suspension (Jurkat, RPMI-8402) were seeded in non-adherent 24-well plates (ThermoFisher, Nunc, cat […]). 60.000 cells were seeded and treated with 0.1, 1 and 10 µM of each compound. […] Cells were harvested 24 h post treatment and RNA isolation and gene expression analysis (qRT-PCR) was performed as described above.
On the technique in general: In qPCR the cycle at which signal appears reflects the starting amount.

The test system of another test is JURKAT cells. Put plainly: Growth inhibition, metabolic activity (CellTiter-Glo). It is filed as cell-based. The note with it: Homo sapiens, six days, read-out: approximated IC50, growth (metabolic activity).
Source text: as §1, §2
On the technique in general: Cellular ATP, detected with luciferase, serves as a proxy for viable cell number.

The subject of a further test is RPMI-8402 cells. The description is as above. To be noted: Homo sapiens; RPMI-8402, six days; read-out: approximated IC50, growth (metabolic activity). In kind it is cell-based.
Source text: as §1, §2

The target of another test is T1, DHODH (Homo sapiens, UniProt Q02127).
T1 construct: purchased Reaction Biology (contract assay)
T1 sequence (Q02127 whole entry): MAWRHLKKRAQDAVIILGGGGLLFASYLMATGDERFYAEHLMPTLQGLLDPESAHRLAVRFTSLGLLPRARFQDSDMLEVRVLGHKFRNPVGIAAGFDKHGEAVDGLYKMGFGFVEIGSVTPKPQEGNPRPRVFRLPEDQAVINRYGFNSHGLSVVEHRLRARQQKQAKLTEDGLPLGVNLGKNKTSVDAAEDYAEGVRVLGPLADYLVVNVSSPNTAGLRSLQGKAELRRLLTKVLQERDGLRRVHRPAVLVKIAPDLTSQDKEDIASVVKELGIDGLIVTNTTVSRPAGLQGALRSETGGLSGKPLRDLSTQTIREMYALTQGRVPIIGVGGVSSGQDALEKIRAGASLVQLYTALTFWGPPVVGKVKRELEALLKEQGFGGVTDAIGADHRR
Nature of the test: DHODH enzyme activity assay (Resorufin fluorescence, Reaction Biology). In kind it is biochemical. How it is done:
DHODH enzyme activity was determined via fluorescence-based quantification (Resorufin fluorescence as endpoint measurement) at Reaction Biology. Reference compound BAY2402234 was measured in singletons in two biological replicates and compounds were measured in technical replicates within the indicated dose-ranges. Values were normalized to DMSO control and dose–response curves were fitted using the log(inhibitor) versus response – Variable slope (model: Y = Bottom + (Top–Bottom)/(1 + 10^((LogIC50-X)*HillSlope)) equation.

Test [3] has as its system mNotch1ΔE fused to an HiBiT tag. Nature of the test: HiBit reporter assay. It is filed as cell-based, mouse. The arrangement: key to protein stability: + indicates that the compound had an effect; -: − indicates that there was no significant effect in the respective assay. The note with it: for protein stability: summary Fig. 8E. How it is done: The Notch1ΔE construct used to generate the Notch reporter cell line (see above) was first cloned in frame into the pBiT3.2-C [TK/HiBiT/Blast] Vector (Promega) and then stably introduced into HEK293T wild type cells, using Lipofectamine transfection, as described. Analogous to the Notch reporter cell line, Blasticidin was used as a selection marker (0.1 mg/ml) and stable cell lines with robust luciferase signals were generated. […] A clone (#D2) with an empty HiBit vector stably integrated was used as control.
20 µl containing 4,000 cells were seeded on 384-well pre-spotted compound plates (Greiner, cat #781080). Cells were incubated for 24 h and viability was determined using CellTiter-Fluor (Promega, cat # G6080), following the manufacturer’s instructions. Next, cells were subjected to the HiBit assay according to the manufacturer’s instructions (Promega, cat # N3030). Prior to cell lysis, the tissue culture plates were allowed to cool down to room temperate. Fluorescence and luminescence signals were recorded using a SpectraMax i3 (Molecular devices) and signals were read at different time-points to determine optimal signal stability. Cells cultivated only with DMSO were used as a reference to determine effects of compounds. MG132, Bafilomycin A1 and the GSI RO4929097 served as additional controls. Celastrol was used to determine the assay window, and a minimum of two technical replicates were measured per assay.
For orientation: With HiBiT, luminescence reflects the tagged protein that the partner subunit can reach.

The subject of another test is HEK293T cells. Put plainly: Growth inhibition, metabolic activity (CellTiter-Glo). To be noted: six days, Supplemental Fig. 5E. It is filed as cell-based. How it is done: We also tested three analogues to compound B and one analogue to compound C. […] To assess the effects of compound A-E in a cell line with very low levels of Notch signalling we repeated the growth inhibition assay in HEK293T cells.
as §2

Where [4] appears, read: dose-range [M] 4.00E-05- 2.03E-09, 3 steps.
Setting [5] is: Fig. 7B, read-out: IC50s DHODH assay: IC50.
Where [6] appears, read: dose-range [M] 4.00E-05- 2.03E-09, 3 steps, read-out: IC50.

In general, IC50 refers to the concentration that inhibits the measured activity by half.

For the compound `COc1cccc(CNc2ccc(N3CCCCC3)cc2)c1OCc1cccs1` [compound C], the 50% inhibitory concentration (IC50) in test [1] (Homo sapiens, the other breast cancer cell lines (other than MDA-MB-468)) was greater than 10 µM. Further, in test [1], the viability assay entry is reported as “context specific” and the tumor cell growth result is on record as “+”. Moreover, in test [2], the Notch targets result was “condition dependent” and the gene expression result is “+”. For the same compound, in the test on JURKAT cells, the IC50 is 4.3 µM. Further, the IC50 in the test on RPMI-8402 cells was 0.6 µM. Moreover, on DHODH (Fig. 7B), the “DHODH enzyme activity (in words)” value is given as “appeared to reduce DHODH enzyme activity across the dose response range”, the “IC50s DHODH assay: Hill-Slope” value was -15.6 and the “IC50s DHODH assay: IC50” value is “indeterminate”. Also, the IC50 on DHODH (broader dose range, Fig. 7D, read-out: IC50, relative DHODH activity) came out at 1.01e-08 M. Besides, on DHODH (setting [4]), the Hill-slope was -15.5 and the LogIC50 entry is “Unstable”. On DHODH (overview in comparison to compound C, Supplemental Fig. 9), the DHODH assay entry was “active”. For the same compound, the HiBiT luciferase signal entry in test [3] (24 h, 14-point dose-response, Supplemental Fig. 8D,G) is reported as “dose-dependent decrease of luciferase signal”. In addition, in test [3], the protein stability entry is given as “+”.

With `CC(C)(C(=O)NCC(F)(F)C(F)(F)F)C(=O)N[C@@H]1C(=O)Nc2ccccc2-c2ccccc21` [RO4929097, reference compound], the viability assay entry in test [1] is “context specific”. Moreover, the “HES1 and HES4 target gene expression” value in test [2] (across the panel of cell lines) is given as “consistently reduced”. In test [2], the Notch targets result is “condition dependent”.

In the case of `Cc1ccc2[nH]c3c(c2c1)CCOC31CCN(Cc2ccccc2-c2ccccc2)CC1` [compound B], the tumor cell growth entry in test [1] is “+”. For the same compound, the gene expression result in test [2] was “+”. In addition, the IC50 with JURKAT cells amounted to 0.3 µM; in the test with RPMI-8402 cells, 0.5 µM; at DHODH (setting [5]), 2.2e-06 M; at DHODH (setting [6]), 2.2e-06 M. In addition, the “IC50s DHODH assay: Hill-Slope” value at DHODH (Fig. 7B) is given as -5.7. At DHODH (setting [4]), the Hill-slope is -5.7. Further, the protein stability entry in test [3] is recorded as “+”.

For the compound `Cc1nn(-c2nc3ccccc3s2)c(O)c1C1OC(=O)c2ccccc21` (stereo not shown) [compound E], in the test on HEK293T cells, the growth inhibitory effect result was “did not exert a growth inhibitory effect”. In addition, the half-maximal inhibitory concentration (IC50) in test [1] (all cell lines (breast cancer)) was greater than 10 µM; on DHODH (setting [6]) it was 3.7e-05 M. In test [1], the tumor cell growth result is “-”. Moreover, the gene expression result in test [2] is given as “+”. Also, at DHODH (Fig. 7B), the “IC50s DHODH assay: Hill-Slope” value is -4.4. This compound also came in with a Hill-slope on DHODH (setting [4]) of -4.4. Moreover, the protein stability result in test [3] is reported as “-”.

In the case of `CCc1c(C(=O)N(C)Cc2cnn(C(C)C)c2)[nH]c2ccccc12` [compound A], in the test on HEK293T cells, the growth inhibitory effect entry is reported as “did not exert a growth inhibitory effect”. Further, the results for the IC50 (in test [1] (all cell lines (breast cancer)); at DHODH (setting [5]); at DHODH (setting [6])) were greater than 10 µM, 2.86e-05 M and 2.9e-05 M, respectively. Also, the tumor cell growth entry in test [1] was “-”. The gene expression entry in test [2] was “-”. Moreover, the “IC50s DHODH assay: Hill-Slope” value against DHODH (Fig. 7B) is reported as -4.5. Also, the Hill-slope on DHODH (setting [4]) was -4.5. The protein stability result in test [3] was “-”.

Turning to `CC(C)(C)c1ccc(Oc2ccc(N)cn2)cc1` [CB-103, reference compound], the viability assay entry in test [1] was “context specific”. In addition, the Notch targets entry in test [2] was “condition dependent”. Besides, the 50% inhibitory concentration (IC50) in the test with JURKAT cells worked out at 1.7 µM; in the test on RPMI-8402 cells, 0.9 µM.

As for `C[C@H](NC(=O)Cc1cc(F)cc(F)c1)C(=O)N[C@H](C(=O)OC(C)(C)C)c1ccccc1` [DAPT, reference compound], the viability assay result in test [1] was “context specific”.

For the compound `NC(=O)c1c(NC(=O)NCc2cccnc2)sc2c1CCC2` [compound D], in the test with HEK293T cells, the growth inhibitory effect result is “did not exert a growth inhibitory effect”. Moreover, the IC50 in test [1] (all cell lines (breast cancer)) was greater than 10 µM; on DHODH (setting [6]), 9.6e-06 M. Moreover, the tumor cell growth result in test [1] is “-”. Further, in test [2], the gene expression result was “+”. Besides, the “IC50s DHODH assay: Hill-Slope” value at DHODH (Fig. 7B) is reported as -5.0. Besides, the Hill-slope on DHODH (setting [4]) is -5.0. Also, the protein stability result in test [3] was “-”.
